Here are results for one compound from BindingDB's records for doi:10.1074/jbc.M110.206193 (Takeda Pharmaceutical, 2011).

Assay [1] deals with Receptor tyrosine-protein kinase erbB-4 (Homo sapiens, UniProt Q15303). Put plainly: Enzyme Assay. The conditions noted are these: pH 7.5. The method, then: (§1) The EGFR, HER2 and HER4 kinase assay were performed using radiolabeled [gamma-32P] ATP from GE Healthcare.
The target in assay [2] is Epidermal growth factor receptor (Homo sapiens, UniProt P00533). Put plainly: Enzyme Assay. The settings on record: pH 7.5. The method, then: as §1
Chain of Epidermal growth factor receptor (P00533 whole entry): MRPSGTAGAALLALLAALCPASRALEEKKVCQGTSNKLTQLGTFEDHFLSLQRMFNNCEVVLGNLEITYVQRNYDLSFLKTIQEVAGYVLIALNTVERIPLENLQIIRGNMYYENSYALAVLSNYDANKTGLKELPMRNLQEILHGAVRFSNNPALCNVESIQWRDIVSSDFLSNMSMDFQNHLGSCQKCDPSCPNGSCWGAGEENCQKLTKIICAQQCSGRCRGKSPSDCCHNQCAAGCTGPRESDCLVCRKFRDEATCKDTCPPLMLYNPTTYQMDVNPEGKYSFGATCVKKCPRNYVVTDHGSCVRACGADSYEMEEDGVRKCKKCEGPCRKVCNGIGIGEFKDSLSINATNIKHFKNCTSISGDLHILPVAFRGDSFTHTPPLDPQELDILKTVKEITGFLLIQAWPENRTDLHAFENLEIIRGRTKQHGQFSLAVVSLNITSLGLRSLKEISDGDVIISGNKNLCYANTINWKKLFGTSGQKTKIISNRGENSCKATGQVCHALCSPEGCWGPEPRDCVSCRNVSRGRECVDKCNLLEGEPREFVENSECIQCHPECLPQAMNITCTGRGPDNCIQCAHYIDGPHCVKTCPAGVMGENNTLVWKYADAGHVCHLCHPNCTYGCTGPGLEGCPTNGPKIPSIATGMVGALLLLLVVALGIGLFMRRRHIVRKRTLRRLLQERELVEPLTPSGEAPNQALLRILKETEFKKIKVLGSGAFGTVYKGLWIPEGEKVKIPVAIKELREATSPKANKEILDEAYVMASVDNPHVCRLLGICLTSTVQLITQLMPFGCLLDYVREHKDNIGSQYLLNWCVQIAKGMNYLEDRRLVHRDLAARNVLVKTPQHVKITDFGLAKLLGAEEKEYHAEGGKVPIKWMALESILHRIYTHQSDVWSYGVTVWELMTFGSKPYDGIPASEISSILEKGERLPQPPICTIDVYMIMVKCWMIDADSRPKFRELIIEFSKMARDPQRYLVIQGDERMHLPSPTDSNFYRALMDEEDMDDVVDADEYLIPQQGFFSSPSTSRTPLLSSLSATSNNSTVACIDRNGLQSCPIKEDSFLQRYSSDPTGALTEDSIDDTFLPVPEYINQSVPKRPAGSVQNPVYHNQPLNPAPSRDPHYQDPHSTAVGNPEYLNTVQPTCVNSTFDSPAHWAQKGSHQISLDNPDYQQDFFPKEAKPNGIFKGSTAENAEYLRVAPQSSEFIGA

Structures are written as SMILES.

Usually IC50 stands for the point on the concentration scale where inhibition reaches its midpoint.

Chain of Receptor tyrosine-protein kinase erbB-4 (Q15303 whole entry): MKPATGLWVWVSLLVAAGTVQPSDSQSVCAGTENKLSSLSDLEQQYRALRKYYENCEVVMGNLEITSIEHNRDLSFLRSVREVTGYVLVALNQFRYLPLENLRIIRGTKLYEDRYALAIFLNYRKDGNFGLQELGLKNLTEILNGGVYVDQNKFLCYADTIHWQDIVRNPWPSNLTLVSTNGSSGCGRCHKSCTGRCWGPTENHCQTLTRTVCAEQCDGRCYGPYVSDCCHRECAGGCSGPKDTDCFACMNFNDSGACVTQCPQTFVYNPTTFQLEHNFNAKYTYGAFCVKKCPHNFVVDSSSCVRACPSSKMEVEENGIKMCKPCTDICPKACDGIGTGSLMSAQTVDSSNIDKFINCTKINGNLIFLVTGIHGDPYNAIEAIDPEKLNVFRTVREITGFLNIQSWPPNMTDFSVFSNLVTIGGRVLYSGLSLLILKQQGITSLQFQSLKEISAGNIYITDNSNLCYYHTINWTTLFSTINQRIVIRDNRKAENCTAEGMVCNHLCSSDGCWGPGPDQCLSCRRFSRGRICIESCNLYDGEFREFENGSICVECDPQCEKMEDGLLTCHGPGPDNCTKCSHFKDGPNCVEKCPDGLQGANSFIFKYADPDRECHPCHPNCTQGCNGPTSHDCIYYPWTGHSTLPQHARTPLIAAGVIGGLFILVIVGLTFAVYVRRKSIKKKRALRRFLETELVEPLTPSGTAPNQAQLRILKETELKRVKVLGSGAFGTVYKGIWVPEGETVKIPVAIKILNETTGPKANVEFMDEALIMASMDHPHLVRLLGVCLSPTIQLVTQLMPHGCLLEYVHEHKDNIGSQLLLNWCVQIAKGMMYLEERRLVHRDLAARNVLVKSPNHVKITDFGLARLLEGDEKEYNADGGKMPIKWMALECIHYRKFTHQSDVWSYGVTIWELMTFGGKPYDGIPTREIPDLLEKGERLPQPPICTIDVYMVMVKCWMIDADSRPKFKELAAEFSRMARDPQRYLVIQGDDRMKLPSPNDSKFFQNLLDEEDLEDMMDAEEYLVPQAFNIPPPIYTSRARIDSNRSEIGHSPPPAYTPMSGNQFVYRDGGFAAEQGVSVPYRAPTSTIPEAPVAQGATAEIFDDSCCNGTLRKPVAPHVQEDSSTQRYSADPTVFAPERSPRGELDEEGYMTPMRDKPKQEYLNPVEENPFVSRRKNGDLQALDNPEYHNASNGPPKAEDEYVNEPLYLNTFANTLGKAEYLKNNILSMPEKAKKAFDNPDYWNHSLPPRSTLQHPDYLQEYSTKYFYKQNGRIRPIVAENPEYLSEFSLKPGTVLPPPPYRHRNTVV

On to `OCCOCn1ccc2ncnc(Nc3cnc(Oc4cccc(C(F)(F)F)c4)c(Cl)c3)c21` [SYR127063], for which the figures for the IC50 in assay [1] and in assay [2] were more than 10 µM and 0.429 µM, respectively.
